Earlier results in patent US20260125371A1, “METHOD FOR INHIBITING CLOSTRIDIOIDES DIFFICILE SPORE GERMINATION” (UNIVERSITY OF NOTRE DAME DU LAC, priority 2022, published 2026).
≈ marks a conversion by molar mass, not a printed value. Like-named read-outs stand apart in the source and are kept apart here.

Assays:
C. difficile strains = conditions: cited from earlier work
[1] = system: S. epidermidis ATCC 35547; conditions: cited from earlier work
S. oralis ATCC 9811 = conditions: cited from earlier work
B. cereus ATCC 13061 = conditions: cited from earlier work
[2] = system: B. licheniformis ATCC 12759; conditions: cited from earlier work
E. faecalis = conditions: cited from earlier work
E. faecium = conditions: cited from earlier work
[3] = system: Lactobacillus gasseri HM-644; conditions: cited from earlier work
K. pneumoniae ATCC700603 = conditions: cited from earlier work
A. baumanii ATCC17961 = conditions: cited from earlier work
P. aeruginosa ATCC27853 = conditions: cited from earlier work
E. aerogenes ATCC35029 = conditions: cited from earlier work
E. coli ATCC25922 = conditions: cited from earlier work
Gram-negative bacteria = conditions: organisms of Table 2; data from earlier publication; cited from earlier work
[4] = C. difficile strains of Table 4

In the case of `Oc1ccc(-c2nc(-c3ccc(OC4CCCC4)cc3)no2)cc1` [Compound 2], the “IMIC50 (101 strains)” value (C. difficile strains; 101 C. difficile strains) is listed as 2 µg/mL, the “MIC90 (101 strains)” value (C. difficile strains; 101 C. difficile strains) is listed as 4 µg/mL (≈ 12.4 µM) and the MIC (C. difficile strains; C. difficile 23828, resistant to FDX) is listed as 4 µg/mL (≈ 12.4 µM). The MIC (C. difficile strains; C. difficile 24531, resistant to VAN) was 4 µg/mL (≈ 12.4 µM), the MIC (C. difficile strains; C. difficile 26675, resistant to MTZ) was 4 µg/mL (≈ 12.4 µM) and the MIC (C. difficile strains; C. difficile BAA-1803) was 2 µg/mL (≈ 6.2 µM). For the same compound, the MIC (C. difficile strains; C. difficile BAA-1870) was 2 µg/mL (≈ 6.2 µM), the MIC (C. difficile strains; C. difficile NR49292) was 2 µg/mL (≈ 6.2 µM) and the MIC (C. difficile strains; C. difficile NR49294) was 2 µg/mL (≈ 6.2 µM). The MIC (C. difficile strains; C. difficile NR49302) was 2 µg/mL (≈ 6.2 µM), the MIC (C. difficile strains; C. difficile NR49305) was 2 µg/mL (≈ 6.2 µM) and the MIC (C. difficile strains; C. difficile NR49310) was 4 µg/mL (≈ 12.4 µM). The MIC (C. difficile strains; C. difficile NR49318) was 4 µg/mL (≈ 12.4 µM), the MIC50 (C. difficile strains; [4]) was 2 µg/mL (≈ 6.2 µM) and the MIC90 (C. difficile strains; [4]) was 4 µg/mL (≈ 12.4 µM). For the same compound, the MIC90 (C. difficile strains; C. difficile, reported earlier) was 4 µg/mL (≈ 12.4 µM), the MIC (C. difficile strains; strain ATCC43598) was 2 µg/mL (≈ 6.2 µM) and the MIC (C. difficile strains; strain BAA-1801) was 2 µg/mL (≈ 6.2 µM). The MIC (C. difficile strains; strain BAA-1803) was 2 µg/mL (≈ 6.2 µM), the MIC (C. difficile strains; strain BAA-1804) was 2 µg/mL (≈ 6.2 µM) and the MIC (C. difficile strains; strain BAA-1812) was 2 µg/mL (≈ 6.2 µM). For the same compound, the MIC (C. difficile strains; strain BAA-1814) was 2 µg/mL (≈ 6.2 µM), the MIC (C. difficile strains; strain BAA-1870) was 2 µg/mL (≈ 6.2 µM) and the MIC (C. difficile strains; strain HM-88) was 4 µg/mL (≈ 12.4 µM). For the same compound, the MIC (C. difficile strains; strain HM-89) was 4 µg/mL (≈ 12.4 µM), the MIC (C. difficile strains; strain HM-745) was 4 µg/mL (≈ 12.4 µM) and the MIC (C. difficile strains; strain HM-746) was 4 µg/mL (≈ 12.4 µM). For the same compound, the MIC (C. difficile strains; strain HM-747) was 4 µg/mL (≈ 12.4 µM), the MIC (C. difficile strains; strain NR49292) was 2 µg/mL (≈ 6.2 µM) and the MIC (C. difficile strains; strain NR49294) was 2 µg/mL (≈ 6.2 µM). For the same compound, the MIC (C. difficile strains; strain NR49302) was 2 µg/mL (≈ 6.2 µM), the MIC (C. difficile strains; strain NR49305) was 2 µg/mL (≈ 6.2 µM) and the MIC (C. difficile strains; strain NR49310) was 4 µg/mL (≈ 12.4 µM). The MIC (C. difficile strains; strain NR49318) was 4 µg/mL (≈ 12.4 µM), the MIC (C. difficile strains; strain NR-13427) was 2 µg/mL (≈ 6.2 µM) and the MIC (C. difficile strains; strain NR-13428) was 4 µg/mL (≈ 12.4 µM). For the same compound, the MIC (C. difficile strains; strain NR-13429) was 4 µg/mL (≈ 12.4 µM), the MIC (C. difficile strains; strain NR-13430) was 2 µg/mL (≈ 6.2 µM) and the MIC (C. difficile strains; strain NR-13431) was 2 µg/mL (≈ 6.2 µM). The MIC (C. difficile strains; strain NR-13433) was 4 µg/mL (≈ 12.4 µM), the MIC (C. difficile strains; strain NR-13434) was 2 µg/mL (≈ 6.2 µM) and the MIC (C. difficile strains; strain NR-13435) was 4 µg/mL (≈ 12.4 µM). For the same compound, the MIC (C. difficile strains; strain NR-13436) was 4 µg/mL (≈ 12.4 µM), the MIC (C. difficile strains; strain NR-13437) was 4 µg/mL (≈ 12.4 µM) and the MIC (C. difficile strains; strain NR-13438) was 2 µg/mL (≈ 6.2 µM). For the same compound, the MIC (C. difficile strains; strain NR-13553) was 2 µg/mL (≈ 6.2 µM), the MIC (C. difficile strains; strain NR-32882) was 2 µg/mL (≈ 6.2 µM) and the MIC (C. difficile strains; strain NR-32883) was 2 µg/mL (≈ 6.2 µM). For the same compound, the MIC (C. difficile strains; strain NR-32884) was 2 µg/mL (≈ 6.2 µM), the MIC (C. difficile strains; strain NR-32885) was 4 µg/mL (≈ 12.4 µM) and the MIC (C. difficile strains; strain NR-32886) was 2 µg/mL (≈ 6.2 µM). For the same compound, the MIC (C. difficile strains; strain NR-32887) was 4 µg/mL (≈ 12.4 µM), the MIC (C. difficile strains; strain NR-32888) was 4 µg/mL (≈ 12.4 µM) and the MIC (C. difficile strains; strain NR-32889) was 4 µg/mL (≈ 12.4 µM). The MIC (C. difficile strains; strain NR-32890) was 2 µg/mL (≈ 6.2 µM), the MIC (C. difficile strains; strain NR-32891) was 4 µg/mL (≈ 12.4 µM) and the MIC (C. difficile strains; strain NR-32892) was 4 µg/mL (≈ 12.4 µM). The MIC (C. difficile strains; strain NR-32895) was 2 µg/mL (≈ 6.2 µM), the MIC (C. difficile strains; strain NR-32896) was 2 µg/mL (≈ 6.2 µM) and the MIC (C. difficile strains; strain NR-32897) was 2 µg/mL (≈ 6.2 µM). For the same compound, the MIC (C. difficile strains; strain NR-32900) was 4 µg/mL (≈ 12.4 µM), the MIC (C. difficile strains; strain NR-32903) was 2 µg/mL (≈ 6.2 µM) and the MIC (C. difficile strains; strain NR-32904) was 2 µg/mL (≈ 6.2 µM). For the same compound, the MIC (C. difficile strains; strain NR-49277) was 2 µg/mL (≈ 6.2 µM), the MIC (C. difficile strains; strain NR-49278) was 2 µg/mL (≈ 6.2 µM) and the MIC (C. difficile strains; strain NR-49279) was 2 µg/mL (≈ 6.2 µM). For the same compound, the MIC (C. difficile strains; strain NR-49280) was 4 µg/mL (≈ 12.4 µM), the MIC (C. difficile strains; strain NR-49281) was 4 µg/mL (≈ 12.4 µM) and the MIC (C. difficile strains; strain NR-49282) was 4 µg/mL (≈ 12.4 µM). The MIC (C. difficile strains; strain NR-49283) was 4 µg/mL (≈ 12.4 µM), the MIC (C. difficile strains; strain NR-49284) was 4 µg/mL (≈ 12.4 µM) and the MIC (C. difficile strains; strain NR-49285) was 2 µg/mL (≈ 6.2 µM). The MIC (C. difficile strains; strain NR-49286) was 2 µg/mL (≈ 6.2 µM), the MIC (C. difficile strains; strain NR-49287) was 2 µg/mL (≈ 6.2 µM) and the MIC (C. difficile strains; strain NR-49288) was 2 µg/mL (≈ 6.2 µM). The MIC (C. difficile strains; strain NR-49289) was 2 µg/mL (≈ 6.2 µM), the MIC (C. difficile strains; strain NR-49290) was 4 µg/mL (≈ 12.4 µM) and the MIC (C. difficile strains; strain NR-49291) was 2 µg/mL (≈ 6.2 µM). For the same compound, the MIC (C. difficile strains; strain NR-49293) was 2 µg/mL (≈ 6.2 µM), the MIC (C. difficile strains; strain NR-49295) was 4 µg/mL (≈ 12.4 µM) and the MIC (C. difficile strains; strain NR-49296) was 4 µg/mL (≈ 12.4 µM). The MIC (C. difficile strains; strain NR-49297) was 2 µg/mL (≈ 6.2 µM), the MIC (C. difficile strains; strain NR-49298) was 4 µg/mL (≈ 12.4 µM) and the MIC (C. difficile strains; strain NR-49299) was 2 µg/mL (≈ 6.2 µM). The MIC (C. difficile strains; strain NR-49300) was 2 µg/mL (≈ 6.2 µM), the MIC (C. difficile strains; strain NR-49301) was 2 µg/mL (≈ 6.2 µM) and the MIC (C. difficile strains; strain NR-49303) was 2 µg/mL (≈ 6.2 µM). The MIC (C. difficile strains; strain NR-49304) was 4 µg/mL (≈ 12.4 µM), the MIC (C. difficile strains; strain NR-49306) was 4 µg/mL (≈ 12.4 µM) and the MIC (C. difficile strains; strain NR-49307) was 4 µg/mL (≈ 12.4 µM). The MIC (C. difficile strains; strain NR-49308) was 2 µg/mL (≈ 6.2 µM), the MIC (C. difficile strains; strain NR-49309) was 2 µg/mL (≈ 6.2 µM) and the MIC (C. difficile strains; strain NR-49311) was 2 µg/mL (≈ 6.2 µM). For the same compound, the MIC (C. difficile strains; strain NR-49312) was 4 µg/mL (≈ 12.4 µM), the MIC (C. difficile strains; strain NR-49313) was 2 µg/mL (≈ 6.2 µM) and the MIC (C. difficile strains; strain NR-49314) was 2 µg/mL (≈ 6.2 µM). The MIC (C. difficile strains; strain NR-49315) was 4 µg/mL (≈ 12.4 µM), the MIC (C. difficile strains; strain NR-49316) was 4 µg/mL (≈ 12.4 µM) and the MIC (C. difficile strains; strain NR-49317) was 4 µg/mL (≈ 12.4 µM). For the same compound, the MIC (C. difficile strains; strain NR-49319) was 4 µg/mL (≈ 12.4 µM), the MIC (C. difficile strains; strain NR-49320) was 2 µg/mL (≈ 6.2 µM) and the MIC (C. difficile strains; strain NR-49321) was 4 µg/mL (≈ 12.4 µM). The MIC (C. difficile strains; strain NR-49323) was 4 µg/mL (≈ 12.4 µM), the MIC (C. difficile strains; strain NR-49324) was 4 µg/mL (≈ 12.4 µM) and the MIC (C. difficile strains; strain NR-49325) was 4 µg/mL (≈ 12.4 µM). For the same compound, the MIC (C. difficile strains; strain NR-49326) was 2 µg/mL (≈ 6.2 µM), the MIC (C. difficile strains; strain NR-49327) was 2 µg/mL (≈ 6.2 µM) and the MIC (C. difficile strains; strain NR-49328) was 2 µg/mL (≈ 6.2 µM). For the same compound, the MIC (C. difficile strains; strain NR-49329) was 2 µg/mL (≈ 6.2 µM), the MIC (C. difficile strains; strain RMA23691) was 4 µg/mL (≈ 12.4 µM) and the MIC (C. difficile strains; strain RMA23828) was 4 µg/mL (≈ 12.4 µM). For the same compound, the MIC (C. difficile strains; strain RMA24531) was 4 µg/mL (≈ 12.4 µM), the MIC (C. difficile strains; strain RMA24923) was 4 µg/mL (≈ 12.4 µM) and the MIC (C. difficile strains; strain RMA26675) was 4 µg/mL (≈ 12.4 µM). For the same compound, the MIC (C. difficile strains; strain RMA27081) was 4 µg/mL (≈ 12.4 µM), the MIC (C. difficile strains; strain RMA27173) was 4 µg/mL (≈ 12.4 µM) and the MIC [1] was 2 µg/mL (≈ 6.2 µM). The MIC (S. oralis ATCC 9811) was greater than 128 µg/mL, the MIC (B. cereus ATCC 13061) was 2 µg/mL (≈ 6.2 µM) and the MIC [2] was 4 µg/mL (≈ 12.4 µM). The MIC (E. faecalis; E. faecalis 99 (Van R)) was 4 µg/mL (≈ 12.4 µM), the MIC (E. faecalis; E. faecalis 201 (Van S)) was 4 µg/mL (≈ 12.4 µM) and the MIC (E. faecalis; E. faecalis ATCC 29212) was 4 µg/mL (≈ 12.4 µM). For the same compound, the MIC (E. faecium; E. faecium 106 (Van R)) was 2 µg/mL (≈ 6.2 µM), the MIC (E. faecium; E. faecium 119-39A (Van S)) was 2 µg/mL (≈ 6.2 µM) and the MIC (E. faecium; E. faecium NCTC 7171) was 4 µg/mL (≈ 12.4 µM). For the same compound, the MIC [3] was greater than 128 µg/mL, the MIC (K. pneumoniae ATCC700603) was greater than 128 µg/mL and the MIC (A. baumanii ATCC17961) was greater than 128 µg/mL. For the same compound, the MIC (P. aeruginosa ATCC27853) was greater than 128 µg/mL, the MIC (E. aerogenes ATCC35029) was greater than 128 µg/mL and the MIC (E. coli ATCC25922) was greater than 128 µg/mL. For the same compound, the “activity against Gram-negative organisms” value (Gram-negative bacteria) was “no activity”.
